The results in this text go back to patent publication US7897616B2, “Imidazopyridin-2-one derivatives as inhibitors of lipases and phospholipases” (Sanofi-Aventis, priority 2006, dated 2011).

Broadly, the IC50 is the concentration that inhibits the measured activity by half.

The assay addresses T1, endothelial lipase (EL) (Homo sapiens, UniProt Q9Y5X9).
T1 construct: made in house; host or cells: recombinant CHO or HEK293 cell lines; concentrated conditioned medium used as enzyme solution
T1 sequence (Q9Y5X9 21-500): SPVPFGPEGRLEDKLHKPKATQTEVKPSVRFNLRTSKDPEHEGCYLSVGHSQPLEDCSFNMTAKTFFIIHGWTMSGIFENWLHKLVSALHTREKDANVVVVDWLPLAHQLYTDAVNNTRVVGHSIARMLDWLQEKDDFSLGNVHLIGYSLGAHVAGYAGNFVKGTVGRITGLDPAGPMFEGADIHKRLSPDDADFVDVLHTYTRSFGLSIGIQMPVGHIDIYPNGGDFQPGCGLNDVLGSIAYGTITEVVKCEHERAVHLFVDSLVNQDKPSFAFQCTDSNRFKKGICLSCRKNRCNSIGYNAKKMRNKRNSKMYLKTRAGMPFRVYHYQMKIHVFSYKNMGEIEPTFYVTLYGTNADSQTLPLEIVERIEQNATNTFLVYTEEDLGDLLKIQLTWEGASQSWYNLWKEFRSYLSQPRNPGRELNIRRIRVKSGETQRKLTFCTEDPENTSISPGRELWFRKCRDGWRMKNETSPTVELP
As to the kind of experiment: EL inhibition assay (EL activity assay with fluorescent Bodipy phospholipid substrate). In kind it is biochemical. The settings on record: EL from conditioned medium of recombinant cell lines (CHO, HEK293); 37° C., 90 minutes; Bodipy-labeled phosphocholine substrate. The protocol:
The activity of the compounds of the invention of the formula I was tested in the following enzyme assay system: […]
EL is released as secretory protein in high concentration into cell culture medium (conditioned medium) by recombinant cell lines (CHO, HEK293). This is employed as an enzyme solution after concentration.
The phospholipase-specific substrate 1,2-bis(4,4-difluoro-5,7-dimethyl-4-bora-3a,4a-diaza-s-indacene-3-undecanoyl)-sn-glycero-3-phosphocholine (manufacturer Molecular Probes) is used to characterize the enzymatic activity of endothelial lipase and the effect of inhibitors. Hydrolysis of the A1 ester linkage of this phospholipid by the enzyme liberates a fatty acid labeled with the fluorescent dye Bodipy which can be detected after separation by thin-layer chromatography on an HPTLC plate (silica gel 60, Merck) or directly in the reaction vessel by measuring the fluorescence. The substrate solution is prepared by dissolving 100 μg of 1,2-bis(4,4-difluoro-5,7-dimethyl-4-bora-3a,4a-diaza-s-indacene-3-undecanoyl)-sn-glycero-3-phospho-choline (manufacturer Molecular Probes) in 100 μl of DMSO and taking up in 2.4 mg of tripalmitin (Sigma) in 393 μl of chloroform which comprises 20 mg/ml of DOP-choline (1,2-dioleoyl-sn-glycero-3-phosphocholine). 39.3 μl of this lipid mixture are transferred into a fresh reaction vessel, and the solvent is evaporated off. The lipid mixture is dissolved in 4 ml of 200 mM TRIS-HCl, 150 mM sodium chloride, pH=7.4, by sonicating twice. The subsequent enzymic reaction takes place at 37° C. for 90 minutes. For this purpose, 20 μl of the substrate solution are incubated with 2 μl of inhibitor of appropriate concentration (dissolved in 10% DMSO, using 10% strength DMSO solution for control) and 2 μl of enzyme solution (conditioned medium). Subsequently, 4 μl of the assay mixture are loaded onto an HPTLC plate (silica gel 60, Merck), and the liberated fluorescent dye is separated for detection with a mobile phase (diethyl ether:petroleum spirit:acetic acid [78:22:1]). After evaporation of the mobile phase, the plate is read in a fluorescence scanner. An increased liberation of the fluorescent dye in the uninhibited reaction is observed as a measure of the enzyme activity.
The enzymatic activity is reduced as a function of the inhibitor concentration used, and the inhibitor concentration at which a half-maximum enzymatic activity is observed is called IC50.

As for `Cc1ccccc1CNC(=O)n1c(=O)n(C)c2cccnc21` [Example 2, N-(2-Methylbenzyl)-1-methyl-2-oxo-1,2-dihydroimidazo[4,5-b]pyridine-3-carboxamide], the IC50 is 0.24 µM.

In the case of `CCCCCCNC(=O)n1c(=O)n(C(=O)OC(C)(C)C)c2c(C)ccnc21` [Example 7, tert-Butyl 3-hexylcarbamoyl-7-methyl-2-oxo-2,3-dihydroimidazo[4,5-b]pyridine-1-carboxylate], the IC50 is 0.146 µM.

In the case of `CCCCCCNC(=O)n1c(=O)n(C)c2cccnc21` [Example 1, N-Hexyl-1-methyl-2-oxo-1,2-dihydroimidazo[4,5-b]pyridine-3-carboxamide], the IC50 was 0.06 µM.

Consider `Cn1c(=O)n(C(=O)N[C@@H]2CCc3ccccc32)c2ncccc21` [Example 9, 1-Methyl-2-oxo-1,2-dihydro-imidazo[4,5-b]pyridine-3-carboxylic acid-(R)-indan-1-ylamide], for which the IC50 worked out at 0.232 µM.

For the molecule `CCCCCCNC(=O)n1c(=O)n(C(=O)NCCCCCC)c2cnccc21` [Example 8, N,N′-Bishexyl-2-oxoimidazo[4,5-c]pyridine-1,3-dicarboxamide], the IC50 was found to be 0.226 µM.
